Results published in patent US5019575A, “Novel pyridazinone compounds, compositions thereof and method of use” (Orion-yhtyma Oy, priority 1989, dated 1991).
Read-outs that look alike come from different tables or passages of the source.

What was measured:
[1] = target: T1, cardiac phosphodiesterase III (PDEIII), guinea-pig (Cavia porcellus, UniProt H0VIU9); assay: Inhibition of cardiac phosphodiesterase III, guinea-pig heart enzyme preparation; format: biochemical
T1 construct: enzyme preparation isolated from dog and guinea-pig heart; from tissue; host or cells: guinea-pig heart
T1 sequence (H0VIU9 1-1132): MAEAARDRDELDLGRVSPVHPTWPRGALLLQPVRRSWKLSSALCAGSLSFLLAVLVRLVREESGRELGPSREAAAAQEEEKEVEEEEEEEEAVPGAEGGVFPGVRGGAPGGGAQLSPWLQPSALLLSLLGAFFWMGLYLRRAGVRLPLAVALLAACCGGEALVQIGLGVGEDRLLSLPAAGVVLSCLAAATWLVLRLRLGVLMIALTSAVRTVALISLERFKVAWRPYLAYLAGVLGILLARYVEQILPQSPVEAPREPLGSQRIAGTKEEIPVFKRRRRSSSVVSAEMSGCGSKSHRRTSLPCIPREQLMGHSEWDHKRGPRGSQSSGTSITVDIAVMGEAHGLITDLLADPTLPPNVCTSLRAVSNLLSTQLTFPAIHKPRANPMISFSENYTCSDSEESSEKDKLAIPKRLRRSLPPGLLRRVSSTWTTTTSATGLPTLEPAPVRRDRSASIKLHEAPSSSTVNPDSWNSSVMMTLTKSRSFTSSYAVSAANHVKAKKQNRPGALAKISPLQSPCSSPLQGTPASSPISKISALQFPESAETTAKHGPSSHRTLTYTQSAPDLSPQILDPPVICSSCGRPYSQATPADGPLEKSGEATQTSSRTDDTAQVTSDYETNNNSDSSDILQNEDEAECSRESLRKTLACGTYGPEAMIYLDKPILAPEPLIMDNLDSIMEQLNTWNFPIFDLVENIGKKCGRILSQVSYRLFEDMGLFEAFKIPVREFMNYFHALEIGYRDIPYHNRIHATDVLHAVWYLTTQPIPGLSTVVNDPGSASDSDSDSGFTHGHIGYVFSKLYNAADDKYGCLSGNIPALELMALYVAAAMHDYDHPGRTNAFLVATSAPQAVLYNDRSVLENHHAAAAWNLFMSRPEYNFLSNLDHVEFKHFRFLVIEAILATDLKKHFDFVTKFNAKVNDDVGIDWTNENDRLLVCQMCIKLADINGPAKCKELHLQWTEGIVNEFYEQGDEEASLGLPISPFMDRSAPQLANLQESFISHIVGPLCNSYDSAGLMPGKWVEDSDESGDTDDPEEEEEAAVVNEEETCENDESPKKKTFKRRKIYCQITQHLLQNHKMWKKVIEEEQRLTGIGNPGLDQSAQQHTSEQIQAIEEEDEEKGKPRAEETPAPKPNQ
Source text: The PDEIII inhibition was studied by using enzyme preparation isolated from dog and guinea-pig heart according to Alajoutsijarvi and Nissinen (Anal. Biochem. 165, 128-132, 1987).

[2] = system: troponin; assay: Retention time in troponin high-performance liquid affinity chromatography (HPLAC) column, calcium dependent binding to troponin; conditions: for Ratio Ca^2+ /EDTA (retention times in troponin-HPLAC column): Ca^2+ solution / EDTA solution; for Retention time in troponin-HPLAC column, Ca^2+ solution: mobile phase with 30 mM calcium; for Retention time in troponin-HPLAC column, Ca^2+ solution / Retention time in troponin-HPLAC column, EDTA solution: flow rate 1 ml/min; for Retention time in troponin-HPLAC column, EDTA solution: mobile phase without calcium (EDTA)
Protocol: The contraction in cardiac muscle and in vascular smooth muscle is triggered by the binding of calcium to troponin and to calmodulin, respectively. […] Commercially available troponin was coupled to the matrix of SelectiSpher-10™ Activated Tresyl silica HPLAC column (size 10 cm×5 mm). The compounds were run through the column with the flow rate 1 ml/min and detected by UV-spectrophotometrically.

[3] = system: guinea-pig papillary muscle; assay: Cardiotonic effect in isolated, electrically driven, right ventricular papillary muscle, without and with carbachol; conditions: for EC50: Cavia porcellus; for Ratio B/A of EC50: with 10 μM carbachol / without carbachol
Protocol: The cardiotonic action of the compound was studied in isolated, electrically driven, right ventricular papillary muscle of guinea-pig.
A = experiments carried out without carbachol
B = experiments carried out in the presence of 10 μM carbachol

[4] = system: guinea-pig papillary muscle; assay: Ability to induce tonic contraction in papillary muscle in the absence of extracellular calcium; conditions: drug concentration 100 μM; no extracellular calcium
Protocol: The cardiotonic action of the compound was studied in isolated, electrically driven, right ventricular papillary muscle of guinea-pig. In order to compare the cardiotonic action based on PDEIII inhibition to that based on the other mechanisms the experiments were carried out in normal Tyrode's bathing solution (Otani et al., Japan. J. Pharmacol. 45, 425, 1987) and also in the solution with carbachol to eliminate the cardiotonic action due to the PDEIII inhibition (Alousi & Johnson, Circulation, 73 (suppl. III), 10-23, 1986).
C = ability to induce tonic contraction in the absence of extracellular
calcium; drug concentration 100 μM

[5] = target: T2, cardiac phosphodiesterase III (PDEIII), dog (Canis lupus familiaris, UniProt A0A8I3NYE0); assay: Inhibition of cardiac phosphodiesterase III, dog heart enzyme preparation; format: biochemical
T2 construct: enzyme preparation isolated from dog and guinea-pig heart; from tissue; host or cells: dog heart
T2 sequence (A0A8I3NYE0 1-1135): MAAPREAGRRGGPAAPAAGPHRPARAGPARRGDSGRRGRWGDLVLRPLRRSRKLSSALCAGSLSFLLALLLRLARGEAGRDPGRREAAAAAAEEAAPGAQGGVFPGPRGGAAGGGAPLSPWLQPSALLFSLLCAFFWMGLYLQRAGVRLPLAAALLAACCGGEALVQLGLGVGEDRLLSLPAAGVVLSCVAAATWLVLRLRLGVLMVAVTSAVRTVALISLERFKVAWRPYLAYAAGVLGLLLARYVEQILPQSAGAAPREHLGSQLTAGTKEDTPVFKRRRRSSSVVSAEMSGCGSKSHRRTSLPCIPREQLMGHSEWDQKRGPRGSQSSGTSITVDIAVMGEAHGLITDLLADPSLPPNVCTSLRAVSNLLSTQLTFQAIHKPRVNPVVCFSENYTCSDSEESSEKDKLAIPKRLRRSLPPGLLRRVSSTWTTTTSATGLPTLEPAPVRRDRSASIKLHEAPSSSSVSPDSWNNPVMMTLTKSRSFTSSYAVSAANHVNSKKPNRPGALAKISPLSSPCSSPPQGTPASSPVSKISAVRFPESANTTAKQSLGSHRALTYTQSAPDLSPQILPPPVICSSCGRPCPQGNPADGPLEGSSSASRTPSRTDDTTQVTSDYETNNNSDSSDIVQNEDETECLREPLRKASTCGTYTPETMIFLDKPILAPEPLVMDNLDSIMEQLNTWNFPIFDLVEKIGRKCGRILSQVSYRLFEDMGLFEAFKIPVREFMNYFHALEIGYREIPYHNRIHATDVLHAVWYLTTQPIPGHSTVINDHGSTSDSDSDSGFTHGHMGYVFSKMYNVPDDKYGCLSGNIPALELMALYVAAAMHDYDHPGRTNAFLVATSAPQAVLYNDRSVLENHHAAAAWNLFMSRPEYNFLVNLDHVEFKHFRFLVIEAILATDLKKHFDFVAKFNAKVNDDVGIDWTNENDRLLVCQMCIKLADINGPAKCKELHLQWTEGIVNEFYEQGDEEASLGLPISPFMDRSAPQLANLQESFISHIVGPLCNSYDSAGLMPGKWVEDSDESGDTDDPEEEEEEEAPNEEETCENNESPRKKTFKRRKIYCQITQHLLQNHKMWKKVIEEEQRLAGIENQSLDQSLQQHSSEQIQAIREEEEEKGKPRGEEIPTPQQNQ

[6] = Precipitation at 100 μM concentration (footnote of Table 3); format: physicochemical; design: key: *: precipitation occurs at 100 μM concentration; conditions: printed in column C of Table 3
[7] = without carbachol, read-out: EC50 cardiotonic effect (A)
[8] = read-out: EC50 cardiotonic effect (A)
[9] = dog heart, read-out: IC50-value, inhibition of cardiac phosphodiesterase III, Dog

Structure (SMILES)	IC50 [1] [nM]	Ratio Ca^2+ /EDTA (retention times in troponin-HPLAC column) [2]	Retention time in troponin-HPLAC column, Ca^2+ solution [2] [min]	Retention time in troponin-HPLAC column, EDTA solution [2] [min]	EC50 [3, 7] [nM]	IC50 [5, 9] [nM]	EC50 ([3]; in the presence of 10 μM carbachol, read-out: EC50 cardiotonic effect (B)) [nM]	precipitation [6]	C: ability to induce tonic contraction in the absence of extracellular calcium [4]	EC50 [3, 8] [nM]	Ratio B/A of EC50 [3]	IC50 [5] [nM]
CC1CC(=O)NN=C1c1ccc(NN=C(C#N)C#N)cc1 (stereo not shown) [Example 6, 6-[4-(1,1-dicyanomethylidenehydrazino)phenyl]-4,5-dihydro-5-methylpyridazin-3(2H)one]	–	–	–	–	–	62	–	–	–	170	–	–
Cc1[nH]c(=O)c(C#N)cc1-c1ccncc1 [milrinone, reference compound]	440	1.00	1.2	1.2	–	–	–	–	no	360	15.3	580
CC1(C)C(=O)Nc2cc3[nH]c(-c4ccncc4)nc3cc21 [adibendan, reference compound]	–	0.99	14.8	15.0	–	1000	–	–	–	–	–	–
N#CC(C#N)=NNc1ccc(C2=NNC(=O)CC2)cc1 [Example 1, 6-[4-(1,1-dicyanomethylidenehydrazino)phenyl]-4,5-dihydropyridazin-3(2H)one]	–	1.59	3.5	2.2	–	270	–	–	yes	1800	2.0	–
COc1ccc(-c2nc3ccc(C4=NNC(=O)CC4C)cc3[nH]2)cc1 (stereo not shown) [pimobendan, reference compound]	–	0.88	70.4	79.6	3300	1750	–	–	no	–	–	–
O=C1CCC(c2ccc(Nc3ccncc3)cc2)=NN1 [MCI-154, reference compound]	–	0.52	6.5	12.4	–	420	–	–	–	–	–	–
N#CC(C#N)=NNc1ccc(C=CC2=NNC(=O)SC2)cc1 [Example 49, 5-[2-(4-(1,1-dicyanomethylidenehydrazino)phenyl)ethenyl]-5,6-dihydro-1,3,4-thiadiazin-2(3H)one]	24	2.30	18.4	8.0	–	–	–	–	yes	1100	–	–

Second part, led by results:

IC50 [1] [nM]	Ratio Ca^2+ /EDTA (retention times in troponin-HPLAC column) [2]	Retention time in troponin-HPLAC column, Ca^2+ solution [2] [min]	Retention time in troponin-HPLAC column, EDTA solution [2] [min]	EC50 [3, 7] [nM]	IC50 [5, 9] [nM]	EC50 ([3]; in the presence of 10 μM carbachol, read-out: EC50 cardiotonic effect (B)) [nM]	precipitation [6]	Structure (SMILES)	C: ability to induce tonic contraction in the absence of extracellular calcium [4]	EC50 [3, 8] [nM]	Ratio B/A of EC50 [3]	IC50 [5] [nM]
17	2.00	2.4	1.2	–	–	–	–	CC1NC(=O)NN=C1c1ccc(NN=C(C#N)C#N)cc1 (stereo not shown) [Example 43, 6-[4-(1,1-dicyanomethylidenehydrazino)phenyl]-4,5-dihydro-5-methyl-1,2,4-triazin-3(2H)one]	–	–	–	–
6	1.69	6.6	3.9	300	–	–	–	CC1CC(=O)NN=C1/C=C/c1ccc(NN=C(C#N)C#N)cc1 (stereo not shown) [Example 33, (E)-6-[2-(4-(1,1-dicyanomethylidenehydrazino)phenyl)ethenyl]-4,5-dihydro-5-methylpyridazin-3(2H)one]	yes	–	–	–
–	2.33	2.1	0.9	–	–	–	–	N#CC(C#N)=NNc1ccc(C2=NNC(=O)NC2)cc1 [Example 45, 6-[4-(1,1-dicyanomethylidenehydrazino)phenyl]-4,5-dihydro-1,2,4-triazin-3(2H)one]	–	–	–	–
24	2.19	10.5	4.8	120	–	–	–	CC1SC(=O)NN=C1c1ccc(NN=C(C#N)C#N)cc1 (stereo not shown) [Example 41, 5-[4-(1,1-dicyanomethylidenehydrazino)phenyl]-5,6-dihydro-6-methyl-1,3,4-thiadiazin-2(3H)one]	yes	–	–	–
51	–	–	–	1100	–	–	–	N#CC(C#N)=NNc1ccc(C2=NNC(=O)SC2)cc1 [Example 44, 5-[4-(1,1-dicyanomethylidenehydrazino)phenyl]-5,6-dihydro-1,3,4-thiadiazin-2(3H)one]	yes	–	–	–
–	1.29	5.4	4.2	740	230	2700	*	CC(=O)C(=NNc1ccc(C2=NNC(=O)CC2)cc1)C(C)=O [Example 7, 6-[4-(1,1-diacetylmethylidenehydrazino)phenyl]-4,5-dihydropyridazin-3(2H)on]	–	–	3.6	–
